Columns and labels:
[1] = system: pDCs; test: IFN-α production by purified pDCs stimulated with peptide-DNA complexes; type: cell-based, human; settings: 24 h, ELISA; for IFN-α response of pDCs to peptide alone: peptide without DNA
Protocol: Buffy-coats from HD were from Centro Trasfusionale, Policlinico Umberto I, Rome, IT. After separation of mononuclear cells by Ficoll centrifugation, pDCs were purified as described, by using the Diamond Plasmacytoid Dendritic Cell Isolation Kit (Miltenyi Biotec, Bergisch Gladbach, Germany) to obtain 99% purity. Purified pDCs were seeded into 96-well round-bottom plates at 3.5/5 × 10^4 cells per well in 200 μL RPMI 1640 (GIBCO), supplemented with 10% fetal calf serum (FCS), 1% Hepes and 1% sodium pyruvate. LL37, cit-LL37 and carb-LL37 were premixed with total human genomic DNA (extracted from PBMC of HD, see below) (15 μg/mL). After 15 min incubation at room temperature the mix was added to the pDC cultures. IFN-α in supernatants was measured by ELISA (MabTech, Stockholm, Sweden), after 24 h (according to the manufacturer’s instructions).
Human DNA was extracted from PBMCs, as reported and was fragmented by sonication. Five milligrams of DNA in a volume of 300 μL were fragmented using the Sonics Vibra Cell sonicator (Newtown, CT, USA), with the following settings: 2, 4 and 10 sonication cycles (30 s on, 30 s off, in ice) to obtain DNA fragment sizes between 100 and 1000 bp. The resulting size distribution was controlled by 2% agarose gel electrophoresis.

[2] = system: native LL37-P1-specific T-cells (HLA-DRB5*0101 tetramer); test: Peptide-MHC-tetramer staining of T-cells after PBMC stimulation; type: cell-based, human; settings: 6 days stimulation, CD38hi CD4 T-cells; for Control (Ctr-B5) tetramer positive T-cells: Ctr-B5 tetr, lower panels Figure S6; for LL37-specific T-cells (LL37-B5 tetramer positive): LL37-B5 tetr, upper panels Figure S6
Protocol: Peptide-MHC-tetramers were from ImmunAware (Denmark). Staining was performed for 40 min with 1microL of tetramer suspension at 37 °C, followed by staining for CD4 (4 °C, 20 min), without washing. After incubation with anti-CD4 antibody, cells were washed, resuspended in PBS and kept at 4 °C. Before flow cytometry-acquisition, cells were labeled with PercP-conjugated 7-AAD to exclude dead cells. The peptide-MHC-tetramers used in this study are: the HLA-DR15-P1: tetramer of HLA-DRB1*1501 LLGDFFRKSKEKIGK (corresponding to the first aa at the NH2-term of the mature native LL37), (PE-conjugated) and the control peptide-MHC-tetramer called DR15-ctr: tetramer of HLA-DRB1*1501 […]1-169-185 (PE-conjugated). The other couple of peptide-MHC-tetramers used were HLA-DRB5*0101 loaded with the same LL37 epitope as above and the control tetramer HLA-DRB5*0101 loaded with the control epitope PVSKMRMATPLLMQA (CLIP-derived).

[3] = system: SLE-affected kidney biopsies; test: Confocal microscopy of SLE renal biopsies; set-up: species or system human; settings: antibody RRB640, lupus nephritis class IV
Protocol: Paraffin-included SLE renal biopsies were obtained from Policlinico Umberto I, Rome, IT. Biopsies were de-paraffinized in xylene (5 min, two times), followed by passages in: absolute ethanol (3 min), 95% ethanol in water (3 min), 80% ethanol in water (3 min), 70% ethanol in water (3 min) and antigen retrieval (5 min at 95 °C in 10 mM sodium citrate, pH 6.0). […] Slides were washed three times for 3 min under agitation with washing buffer and incubated with donkey anti-mouse or anti-rabbit secondary antibody, conjugated with AlexaFluor 647, Alexa Fluor 568 or 594 or AlexaFluor 488 (Abcam, Cambridge, UK) depending on the combinations of markers analyzed (in humidified chamber). Slides were washed again in washing buffer and mounted in Prolong Gold anti-fade media containing a DNA dye (DAPI) (Molecular Probes), before analysis with a confocal microscope, objectives 20× or 40× and 60× in oil immersion. Images were taken by a FV1000 confocal microscope (Olympus, Tokyo, Japan), using a Olympus planapo objective 40× or 60× oil A.N. 1,42. Excitation light was obtained by a Laser Dapi 408 nm for DAPI, an Argon Ion Laser (488 nm) for FITC (Alexa 488), a Diode Laser HeNe (561 nm) for Alexa 568 and a Red Diode Laser (638 nm) for Alexa 647. DAPI emission was recorded from 415 to 485 nm, FITC emission was recorded from 495 to 550 nm, Alexa 568 from 583 to 628 nm and Alexa 647, from 634 to 750 nm.

[4] = system: SLE CD4 T-cells; settings: cited from earlier work
From the text: The activation of autoreactive T- and B-cells characterizes Systemic Lupus Erythematosus (SLE), a rare but potentially severe disease, with poor therapeutic options. In this context, a deeper knowledge of the molecular pathways leading to autoimmunity in SLE may shed light over disease aspects still neglected and uncover novel disease biomarkers and therapy targets. The human cathelicidin antimicrobial peptide, (AMP, Uniprot P49913)—also called CAP-18 or FALL-39—is encoded by the human gene CAMP. The mature form, peptide LL37, which corresponds to the COOH-terminal part of the molecule ( ...

[5] = system: pDCs; settings: LL37 citrullinated at all five arginines; cited from earlier work
From the text: LL37 is able to activate innate immune cells and B-cells after forming complexes with nucleic acids in a special molecular conformation, suitable for TLR stimulation. PDCs, as well as B-cells, are both activated by LL37-DNA or LL37-RNA complexes.

| Substance | IFN-α response of pDCs to peptide alone [1] | Control (Ctr-B5) tetramer positive T-cells [2] | LL37-specific T-cells (LL37-B5 tetramer positive) [2] | Presence in SLE-affected kidney biopsies and co-localization with IgG [3] | IFN-I/IFN-α production by pDCs, peptide-DNA complex ([1]; peptide premixed with human DNA (15 μg/mL)) | Antigen efficiency in SLE compared to native LL37 [4] | Ability to transform cell-free DNA into an inducer of IFN-I by human pDCs [5] |
| --- | --- | --- | --- | --- | --- | --- | --- |
| L*LGDFFRK*SK*EK*IGKEFK*RIVQRIK*DFLRNLVPRTES [carb-LL37] | no IFN-α response | 0.39% | 6.57% | present in SLE-affected kidney biopsies and partially co-localizes with immunoglobulin (Ig)-G |  |  |  |
| LLGDFFR(cit)KSKEKIGKEFKR(cit)IVQR(cit)IKDFLR(cit)NLVPR(cit)TES [cit-LL37, LL37 citrullinated at all five arginine sites] | no IFN-α response | 0.54% | 2.48% |  | did not stimulate any IFN-I production by pDCs | more efficient antigen in SLE than native LL37 | loose ability to transforms the “cell-free” DNA into an inducer of IFN-I by human pDCs |

Source: article PMC7915858, “Complementary Effects of Carbamylated and Citrullinated LL37 in Autoimmunity and Inflammation in Systemic Lupus Erythematosus” (International Journal of Molecular Sciences, 2021)
